“Also recorded” adds a separate entry of the source.
Key:
Format in all cases: physicochemical
[1] = Slurry competition (interconversion) studies between Forms I and IV in heptane; conditions: mixture of Form I and Form IV, pre-saturated heptane, 7 d
Procedure: Interconversion slurries were conducted in heptane at RT, −20° C., and 40° C. as in Table 12. In these slurries, the heptane was pre-saturated with N,N-DMT using Form IV solids at the stated temperature, and a portion of the liquid phase was filtered into a mixture of Form I and Form IV solids.

[2] = Aqueous solubility by solvent addition, visual assessment; conditions: water, calculated from total solvent used
[3] = Hygroscopicity by dynamic vapor sorption (DVS)
[4] = Stable form screen slurries, form by XRPD; conditions: for Relative thermodynamic stability of the polymorph (conclusion from slurries): slurries at RT, 40° C., about 2 weeks
Procedure: Slurrying: Suspensions were prepared by adding enough solids to a given solvent at the stated conditions so that undissolved solids were present. The mixture was then agitated (typically by stirring or oscillation) in a sealed vial at a given temperature for an extended period of time.
Slurry experiments were conducted to determine the relative stability of Forms I, III, and IV. The screening conditions are tabulated at Tables 9-11.
In these experiments, saturated solutions containing excess undissolved solids were stirred for extended durations. […] Slurries were conducted RT, 40° C., 5° C., and −20° C. for approximately 2 weeks.

[5] = Solid state heating experiments, form conversion
[6] = Thermogravimetric analysis (TGA), decomposition; conditions: 25 to 350° C. at 10° C./min under nitrogen
Procedure: TGA or TGA/DSC analyses were performed using a Mettler-Toledo TGA/DSC3+ analyzer. Temperature and enthalpy adjustments were performed using indium, tin, zinc, and phenyl salicylate, and then verified with indium. The balance was verified with calcium oxalate. The sample was placed in an aluminum pan. The pan was hermetically sealed, the lid pierced, and the pan was then inserted into the TG furnace. A weighed aluminum pan configured as the sample pan was placed on the reference platform. The furnace was heated under nitrogen. Samples were analyzed from 25° C. to 350° C. at 10° C./min. Thermogravimetric analyses typically experience a period of equilibration at the start of each analysis, indicated by parentheses on the thermograms in the Figures section (V). The starting temperature for relevant weight loss calculations is selected at a point beyond this region (typically above 35° C.) for accuracy.

[7] = Cycling DSC of amorphous N,N-DMT prepared in situ (glass transition)
Procedure: A cycling DSC experiment was performed to investigate a potential glass transition temperature by preparing amorphous solids in situ, starting with Form IV.
At the start of the experiment, Form IV solids were heated past the melt (to 80° C.) and held for 10 minutes. The melted material was quickly cooled to −80° C., then reheated to 200° C. A glass transition (Tg) is observed as a step in the green curve at −18° ° C. Amorphous materials tend to spontaneously crystallize at temperatures above the Tg.

SMILES: CN(C)CCc1c[nH]c2ccccc12 [Form I and Form IV, N,N-dimethyltryptamine]
- XRPD Result after competition slurry ([1]; 40° C.): Form IV
- XRPD Result after competition slurry ([1]; RT): Form IV
- XRPD Result after competition slurry ([1]; −20° C.): Form IV

SMILES: CN(C)CCc1c[nH]c2ccccc12 [Form I, N,N-dimethyltryptamine]
- solubility ([2]; thermodynamic from solid): < 1000 µg/mL
- Hygroscopicity [DVS], water uptake ([3]; at 60% RH): 0.04 wt % water at
- Hygroscopicity [DVS], water uptake ([3]; at 90% RH): 60% RH and 0.18%
- Form after DVS cycle and drying ([3]; post-DVS solids dried at 60° C.): form change; also recorded: recrystallized upon cooling to ambient temperature to lower-melting Form III
- XRPD Result after slurry ([4]; start Form I, EtOAc/cyclohexane (5:95), attempted slurry, RT, 13 d): Form I
- XRPD Result after slurry ([4]; start Form I, IPA/water (10:90), 5° C., 13 d): Form I
- XRPD Result after slurry ([4]; start Form I, THF/water (5:95), attempted slurry, RT, 13 d): Form IV
- XRPD Result after slurry ([4]; start Form I, acetone/water (10:90), 5° C., 13 d): Form IV
- XRPD Result after slurry ([4]; start Form I, cyclohexane, RT, 13 d): Form I
- XRPD Result after slurry ([4]; start Form I, heptane, RT, 13 d): Form I
- XRPD Result after slurry ([4]; start Form I, heptane, −20° C., 17 d): Form I

SMILES: CN(C)CCc1c[nH]c2ccccc12 [Form III, N,N-dimethyltryptamine]
- Form conversion on solid state heating ([5]; held between 35° C. and 40° C.): concurrently melt and recrystallize to Form IV
- Decomposition (steep drop in TGA thermogram) begins above [6]: > 240 °C
- Relative thermodynamic stability of the polymorph (conclusion from slurries) ([4]; 5° C., −20° C.): metastable across all temperatures; also recorded: metastable at all conditions tested
- XRPD Result after slurry ([4]; start Form III, EtOAc/heptane (5:95), −20° C., 15 d): Form I
- XRPD Result after slurry ([4]; start Form III, IPAc/heptane (3:97), RT, 13 d): Form IV
- XRPD Result after slurry ([4]; start Form III, MeOH/water (20:80), 5° C., 15 d, sample oily before analysis): amorphous
- XRPD Result after slurry ([4]; start Form III, heptane, RT, 15 d): Form I

SMILES: CN(C)CCc1c[nH]c2ccccc12 [Form IV, N,N-dimethyltryptamine]
- Form change on solid state heating ([5]; heating at 50° C. for 10 minutes): no changes
- Aqueous solubility [2]: (<1) mg/mL
- Decomposition (steep drop in TGA thermogram) begins above [6]: > 240 °C
- Relative thermodynamic stability of the polymorph (conclusion from slurries) ([4]; 5° C., −20° C.): most thermodynamically stable polymorph; also recorded: remained unchanged upon slurrying in various solvent systems; also recorded: most thermodynamically stable form
- XRPD Result after slurry ([4]; start Form IV, EtOAc/heptane (5:95), −20° C., 13 d): Form IV
- XRPD Result after slurry ([4]; start Form IV, MeOH/water (20:80), 5° C., 13 d): Form IV
- XRPD Result after slurry ([4]; start Form IV, acetone/water (10:90), RT, 13 d): Form IV
- XRPD Result after slurry ([4]; start Form IV, heptane, RT, 13 d): Form IV

SMILES: CN(C)CCc1c[nH]c2ccccc12 [amorphous N,N-DMT, N,N-dimethyltryptamine]
- Glass transition (Tg) ([7]; Form IV melted at 80° C., 10 min, cooled to −80° C., reheated to 200° C.): −18 °C
- Physical stability of amorphous material ([7]; heating/melting experiments, −20° C. to 40° C., above Tg): readily crystallize; also recorded: poor physical stability

Reference: US12729182B2, “Crystalline forms of N,N-dimethyltryptamine and methods of using the same” (priority 2022, dated 2026)
